Results: patent US20240366521A1, “NANOPARTICLES AND METHODS OF USE” (Qana Therapeutics Inc., priority 2023, published 2024)

Assay: Solvent screen of MMAE
Type: physicochemical
Conditions: acetone, ethanol, and isopropanol
Description: A solvent screen of MMAE was conducted.

With `CCC(C)C(C(CC(=O)N1CCCC1C(OC)C(C)C(=O)NC(C)C(O)c1ccccc1)OC)N(C)C(=O)C(NC(=O)C(NC)C(C)C)C(C)C` (stereo not shown) [MMAE, monomethyl auristatin E] the “solubility of MMAE in solvent” value was “good solubility”.
